# Source: patent publication US20150140121A1, “Compositions and Methods for Tight Junction Modulation” (Lankenau Institute for Medical Research, priority 2012, published 2015)
# Key:
# [1] = tested on: mammary epithelial barrier; conditions: selenium at supplemental concentration (e.g., 100 ng/ml); Martin et al. 2007; cited from earlier work
# [2] = tested on: mammary epithelial barrier; conditions: selenium (e.g., 100 ng/ml), Martin et al. 2007; cited from earlier work
# ZO-1 = conditions: selenium (e.g., 100 ng/ml); Martin et al. 2007; cited from earlier work
# occludin [3] = conditions: selenium (e.g., 100 ng/ml); Martin et al. 2007; cited from earlier work
# claudin 5 = conditions: berberine; CACO-2 and HT-29/B6 cell layers; cited from earlier work
# claudin-1 [4] = conditions: berberine; CACO-2 and HT-29/B6 cell layers; cited from earlier work
# claudin 7 = conditions: berberine; CACO-2 and HT-29/B6 cell layers; cited from earlier work
# occludin [5] = conditions: CACO-2 and HT-29/B6 cell layers, cited from earlier work
# claudin 2 = conditions: berberine; CACO-2 and HT-29/B6 cell layers; cited from earlier work
# claudin-4 [6] = conditions: berberine; CACO-2 and HT-29/B6 cell layers; cited from earlier work
# claudin 3 = conditions: berberine; CACO-2 and HT-29/B6 cell layers; cited from earlier work
# [7] = tested on: colonc epithelial (CACO-2 and HT-29/B6) cell layers; conditions: berberine 50 micromolar, Li et al. 2010, Amasheh et al. 2010; cited from earlier work
# Claudin-1 [8] = experiment: Claudin-1 expression in LLC-PK1 cell layers (Western immunoblot); type: cell-based, porcine
# Source text: (§1) Zinc has long been known to be efficacious in the treatment of certain types of diarrhea. It has been determined that zinc can render certain TJ barriers less leaky. Zinc effects can vary depending upon the specific type of epithelial layer.
# LLC-PK1 cell layers = experiment: Transepithelial electrical resistance (Rt) across LLC-PK1 cell layers; type: cell-based, porcine; conditions: LLC-PK1 cell layers
# Protocol: LLC-PK1 is a porcine cell line model of the kidney proximal tubule.
# The effect of zinc and/or quercetin on the electrical resistance across LLC-PK1 renal epithelial cell layers was tested. Briefly, LLC-PK1 renal epithelial cell layers were treated with either 100 μM zinc alone, 400 μM quercetin alone; or both agents together. The stimulation of transepithelial electrical resistance (Rt) by maximally effective concentrations of zinc alone and quercetin alone was in the range of 50-60% of control levels. […] The results shown in FIG. 8 represent the mean+/− standard error for 12 cell layers. P values are for one-sided Student's t tests.
# Claudin-2 [9] = experiment: Claudin-2 expression in LLC-PK1 cell layers (Western immunoblot); type: cell-based, porcine
# Source text: as §1
# Occludin [10] = experiment: Occludin expression in LLC-PK1 cell layers (Western immunoblot); type: cell-based, porcine; conditions: indole; LLC-PK1 cells
# Source text: as §1
# [11] = tested on: human colonic (HCT-8) epithelial cell layers; conditions: indole 1 mM; HCT-8 cell layers; Bansal et al. 2010; cited from earlier work
# Claudin-7 = Claudin-7 expression in LLC-PK1 cell layers; type: cell-based, porcine; conditions: indole; LLC-PK1 cells
# claudin-2 [12] = conditions: indole 1 mM; HCT-8 cell layers; Bansal et al. 2010; cited from earlier work
# Claudin-4 [13] = experiment: Claudin-4 expression in LLC-PK1 cell layers (Western immunoblot); type: cell-based, porcine
# Source text: as §1
# Claudin-3 = Claudin-3 expression in LLC-PK1 cell layers (Western immunoblot); type: cell-based, porcine
# Source text: as §1
# Claudin-5 = Claudin-5 expression in LLC-PK1 cell layers (Western immunoblot); type: cell-based, porcine
# Source text: as §1
# Tricellulin = Tricellulin expression in LLC-PK1 cell layers (Western immunoblot); type: cell-based, porcine
# Source text: as §1
# [14] = 1 mM Indole, LLC-PK1 cell layers, given as Decr (decrease)
# [15] = 1 mM Indole, LLC-PK1 cell layers, given as Incr (increase)
structure (smiles),measurement,setting,value
[Se] [Selenium],Rt,[1],increased
same,paracellular invasion of cancer cells,[2],decreased
same,cellular redistribution of ZO-1 from cytosolic to junctional regions,ZO-1,cellular redistribution
same,cellular redistribution of occludin from cytosolic to junctional regions,occludin [3],cellular redistribution
COc1ccc2cc3[n+](cc2c1OC)CCc1cc2c(cc1-3)OCO2 [berberine],amount of claudin 5,claudin 5,no effect
same,cellular amount of claudin 1,claudin-1 [4],Strong effects
same,amount of claudin 7,claudin 7,no effect
same,occludin redistribution that ensues from proinflammatory cytokine exposure,occludin [5]; berberine 50 micromolar,prevents
same,amount of occludin,occludin [5]; berberine,no effect
same,cellular amount of claudin 2,claudin 2,Strong effects
same,amount of claudin 4,claudin-4 [6],no effect
same,amount of claudin 3,claudin 3,no effect
same,TJ leakiness that ensues from proinflammatory cytokine exposure,[7],prevents
c1ccc2[nH]ccc2c1 [indole],Claudin-1,Claudin-1 [8]; [14],Decr 30%
same,effect on claudin 1,"Claudin-1 [8]; indole, LLC-PK1 cells",less than 50%
same,transepithelial resistance,"LLC-PK1 cell layers; 1 mM Indole, given as Incr (increase)",Incr 30%
same,transepithelial resistance,"LLC-PK1 cell layers; indole (0.1, 1, 2 mM, FIG. 6)",increased
same,Claudin-2,Claudin-2 [9]; [14],Decr 40%
same,effect on claudin 2,"Claudin-2 [9]; indole, LLC-PK1 cells",less than 50%
same,effect on occludin,Occludin [10],less than 50%
same,Rt,[11],increased
same,effect on claudin 7,Claudin-7,less than 50%
same,abundance of claudin-2,claudin-2 [12],decreased
same,Claudin-4,Claudin-4 [13]; [15],Incr 100%
same,expression of Claudin 4,"Claudin-4 [13]; indole (1 mM, FIG. 5A), LLC-PK1 cells",upregulated
same,Claudin-3,Claudin-3; [14],Decr 20%
same,effect on claudin 3,"Claudin-3; indole, LLC-PK1 cells",less than 50%
same,Claudin-5,Claudin-5; [15],Incr 150%
same,expression of Claudin 5,"Claudin-5; indole (1 mM, FIG. 5B), LLC-PK1 cells",upregulated
same,Tricellulin,Tricellulin; [14],Decr 10%
same,effect on tricellulin,"Tricellulin; indole, LLC-PK1 cells",less than 50%
